Test [1] has as its target TOP2A (topoisomerase IIα) (Homo sapiens, UniProt P11388). Put plainly: kDNA decatenation assay with recombinant enzyme. It is filed as biochemical.
Test [2] deals with TOP2B (topoisomerase IIβ) (Homo sapiens, UniProt Q02880). Put plainly: kDNA decatenation assay with recombinant enzyme. Format: biochemical.
TOP2B (topoisomerase IIβ), sequence (Q02880 2-1626): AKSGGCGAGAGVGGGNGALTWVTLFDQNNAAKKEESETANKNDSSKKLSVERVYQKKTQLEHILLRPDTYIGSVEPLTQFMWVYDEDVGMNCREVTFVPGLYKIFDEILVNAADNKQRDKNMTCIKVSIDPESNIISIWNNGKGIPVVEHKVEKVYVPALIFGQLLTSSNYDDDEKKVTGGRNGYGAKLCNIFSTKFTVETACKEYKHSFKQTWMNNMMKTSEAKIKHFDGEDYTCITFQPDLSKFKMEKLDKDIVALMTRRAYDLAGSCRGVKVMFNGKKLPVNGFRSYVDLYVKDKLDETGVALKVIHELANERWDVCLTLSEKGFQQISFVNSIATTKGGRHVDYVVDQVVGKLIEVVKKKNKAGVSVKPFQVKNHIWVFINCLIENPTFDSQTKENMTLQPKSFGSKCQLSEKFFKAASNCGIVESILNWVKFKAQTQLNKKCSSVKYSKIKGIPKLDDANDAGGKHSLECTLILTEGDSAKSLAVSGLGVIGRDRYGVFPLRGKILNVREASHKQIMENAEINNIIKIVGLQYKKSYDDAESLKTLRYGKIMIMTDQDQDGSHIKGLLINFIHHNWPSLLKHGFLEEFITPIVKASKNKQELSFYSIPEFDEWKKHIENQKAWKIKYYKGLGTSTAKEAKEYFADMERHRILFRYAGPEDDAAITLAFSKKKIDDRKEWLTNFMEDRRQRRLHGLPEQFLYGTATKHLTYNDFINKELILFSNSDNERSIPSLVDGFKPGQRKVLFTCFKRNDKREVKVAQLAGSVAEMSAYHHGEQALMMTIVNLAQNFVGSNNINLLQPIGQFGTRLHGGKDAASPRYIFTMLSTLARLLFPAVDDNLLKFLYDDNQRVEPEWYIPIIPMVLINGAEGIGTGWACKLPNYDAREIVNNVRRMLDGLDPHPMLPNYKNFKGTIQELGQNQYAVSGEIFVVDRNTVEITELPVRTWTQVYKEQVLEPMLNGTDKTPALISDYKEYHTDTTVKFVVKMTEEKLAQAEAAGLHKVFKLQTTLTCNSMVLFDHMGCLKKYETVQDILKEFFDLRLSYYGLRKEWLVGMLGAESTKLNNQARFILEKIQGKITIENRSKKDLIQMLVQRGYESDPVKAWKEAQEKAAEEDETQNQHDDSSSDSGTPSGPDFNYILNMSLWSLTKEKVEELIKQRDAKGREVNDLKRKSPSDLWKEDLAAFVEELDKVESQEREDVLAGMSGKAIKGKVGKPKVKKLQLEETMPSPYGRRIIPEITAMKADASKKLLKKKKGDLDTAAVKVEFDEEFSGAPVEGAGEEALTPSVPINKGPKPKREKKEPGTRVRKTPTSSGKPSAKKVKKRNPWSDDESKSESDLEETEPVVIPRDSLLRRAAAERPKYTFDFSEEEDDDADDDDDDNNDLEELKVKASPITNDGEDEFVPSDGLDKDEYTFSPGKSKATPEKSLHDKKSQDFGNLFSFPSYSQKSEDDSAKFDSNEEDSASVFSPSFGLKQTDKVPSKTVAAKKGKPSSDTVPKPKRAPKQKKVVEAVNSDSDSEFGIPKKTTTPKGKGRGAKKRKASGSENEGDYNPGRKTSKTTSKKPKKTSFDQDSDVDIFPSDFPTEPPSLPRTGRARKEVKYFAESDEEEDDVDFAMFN

TOP2A (topoisomerase IIα), sequence (P11388 whole entry): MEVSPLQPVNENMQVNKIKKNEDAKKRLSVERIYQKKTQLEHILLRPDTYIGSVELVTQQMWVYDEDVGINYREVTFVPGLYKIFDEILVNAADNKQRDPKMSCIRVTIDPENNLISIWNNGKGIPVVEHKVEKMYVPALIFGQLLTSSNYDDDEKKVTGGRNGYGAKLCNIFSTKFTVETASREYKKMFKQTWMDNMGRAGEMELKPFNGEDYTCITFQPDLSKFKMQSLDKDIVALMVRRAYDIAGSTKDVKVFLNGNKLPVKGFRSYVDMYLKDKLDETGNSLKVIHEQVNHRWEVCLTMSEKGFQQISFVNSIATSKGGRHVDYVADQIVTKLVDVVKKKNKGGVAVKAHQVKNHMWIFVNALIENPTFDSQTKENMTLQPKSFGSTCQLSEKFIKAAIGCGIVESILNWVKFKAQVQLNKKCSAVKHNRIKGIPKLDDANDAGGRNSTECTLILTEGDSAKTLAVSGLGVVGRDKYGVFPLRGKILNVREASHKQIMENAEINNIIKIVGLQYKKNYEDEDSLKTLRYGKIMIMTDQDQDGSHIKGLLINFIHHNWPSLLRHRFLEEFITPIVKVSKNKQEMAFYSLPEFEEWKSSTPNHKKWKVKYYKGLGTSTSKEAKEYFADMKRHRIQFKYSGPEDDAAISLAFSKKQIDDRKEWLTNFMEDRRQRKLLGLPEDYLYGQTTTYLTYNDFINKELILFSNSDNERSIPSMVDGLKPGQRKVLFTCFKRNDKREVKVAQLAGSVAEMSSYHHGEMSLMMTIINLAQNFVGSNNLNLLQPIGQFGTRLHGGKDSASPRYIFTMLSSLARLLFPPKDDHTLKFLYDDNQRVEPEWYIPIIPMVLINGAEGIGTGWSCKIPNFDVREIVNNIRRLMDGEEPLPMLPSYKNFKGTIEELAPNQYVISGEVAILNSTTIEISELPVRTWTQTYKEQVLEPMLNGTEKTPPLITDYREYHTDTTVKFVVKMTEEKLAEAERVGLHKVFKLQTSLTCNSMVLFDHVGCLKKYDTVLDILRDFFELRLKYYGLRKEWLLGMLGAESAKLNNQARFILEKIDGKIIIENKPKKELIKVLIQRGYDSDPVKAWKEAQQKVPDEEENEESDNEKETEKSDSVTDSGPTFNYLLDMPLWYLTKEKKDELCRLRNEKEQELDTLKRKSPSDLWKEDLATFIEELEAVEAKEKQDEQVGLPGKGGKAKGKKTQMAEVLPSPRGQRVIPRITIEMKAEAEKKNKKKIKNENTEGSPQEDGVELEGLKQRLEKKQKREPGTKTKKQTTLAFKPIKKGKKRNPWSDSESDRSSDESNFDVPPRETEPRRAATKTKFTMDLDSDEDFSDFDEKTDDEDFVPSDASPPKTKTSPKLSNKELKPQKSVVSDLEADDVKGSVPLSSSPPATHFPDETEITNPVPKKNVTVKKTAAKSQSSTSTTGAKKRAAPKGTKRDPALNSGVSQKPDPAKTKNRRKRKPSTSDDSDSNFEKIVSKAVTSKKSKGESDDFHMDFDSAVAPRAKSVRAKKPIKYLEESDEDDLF

As a reminder, the IC50 is the concentration at which inhibition is half-maximal. On to `CC(Oc1ccc(Oc2cnc3ccc(Cl)cc3n2)cc1)C(=O)O` (racemic) [XK469, 2(R)-[4-(7-chloro-2-quinoxalinyl)oxyphenoxy]propionic acid], for which the concentration for half-maximal inhibition (IC50) in test [1] and in test [2] was about 130 µM each time.
For the molecule `C[C@@H](CN1CC(=O)NC(=O)C1)N1CC(=O)NC(=O)C1` [DEX, dexrazoxane], the IC50 in test [1] and in test [2] was about 60 µM throughout.

These data come from PMC10964739 (Toxicological Sciences, 2024).
